Reference: patent US9393271B2, “GHRH agonists for islet cell transplantation and function and the treatment of diabetes” (UNIVERSITY OF MIAMI, priority 2012, dated 2016)
Non-standard residues stand in square brackets, D forms with d. Residues, ends and D or L forms follow the SMILES beside them. ξ: configuration not given here. *: point of attachment. Phe(F5) = N[C@@H](Cc1c(F)c(F)c(F)c(F)c1F)C(=O)O; Desaminotyrosyl = O=C(CCc1ccc(O)cc1)*; NMeY = CN[C@@H](Cc1ccc(O)cc1)C(=O)O; Agmatine = N=C(N)NCCCCN*; Nle = CCCC[C@H](N)C(=O)O; Orn = NCCC[C@H](N)C(=O)O; dAbu = CC[C@@H](N)C(=O)O; Abu = CC[C@H](N)C(=O)O; Aoc = NCCCCCCCC(=O)O; GABA = NCCCC(=O)O; ξA = CC(N)C(=O)O

These compounds were tested against T1, GHRH receptor (human pituitary membrane homogenates) (Homo sapiens, UniProt Q02643) (assay: GHRH receptor binding, ligand competition with 125I-labeled JV-1-42 (Table 7)). Settings: JI-38 = 1.
T1 sequence (Q02643 23-423): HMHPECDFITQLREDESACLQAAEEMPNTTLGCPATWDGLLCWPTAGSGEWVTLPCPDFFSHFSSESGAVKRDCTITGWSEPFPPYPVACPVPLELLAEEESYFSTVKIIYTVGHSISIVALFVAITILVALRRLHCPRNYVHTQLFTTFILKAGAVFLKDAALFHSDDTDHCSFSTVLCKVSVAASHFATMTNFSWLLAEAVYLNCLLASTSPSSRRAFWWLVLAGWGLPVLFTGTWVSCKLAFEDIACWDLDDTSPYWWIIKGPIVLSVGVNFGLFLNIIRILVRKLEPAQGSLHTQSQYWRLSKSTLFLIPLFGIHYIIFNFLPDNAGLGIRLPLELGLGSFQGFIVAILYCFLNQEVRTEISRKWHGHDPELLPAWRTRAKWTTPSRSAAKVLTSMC
Parameters: Normal human pituitaries were purchased from the National Hormone and Peptide Program; tissue National Hormone and Peptide Program (A. F. Parlow, Harbor-UCLA Medical Center, Torrance, Calif.); host or cells: normal human pituitary, membrane fraction / homogenate

Relative affinitiy (Binding potency) vs JI-38	Structure (SMILES)
1.44	CCCC[C@H](NC(=O)[C@@H](NC(=O)[C@H](CC(=O)O)NC(=O)[C@H](CCC(N)=O)NC(=O)[C@H](CC(C)C)NC(=O)[C@H](CC(C)C)NC(=O)[C@H](CCCN)NC(=O)[C@H](CCCNC(=N)N)NC(=O)[C@H](C)NC(=O)[C@H](CO)NC(=O)[C@H](CC(C)C)NC(=O)[C@H](CCC(N)=O)NC(=O)[C@H](CC)NC(=O)[C@H](CC(C)C)NC(=O)[C@@H](NC(=O)[C@H](CCCN)NC(=O)[C@H](CCCNC(=N)N)NC(=O)[C@H](Cc1ccc(O)cc1)NC(=O)[C@H](CO)NC(=O)[C@H](CC(N)=O)NC(=O)[C@@H](NC(=O)[C@H](Cc1ccccc1)NC(=O)[C@@H](NC(=O)[C@H](C)NC(=O)[C@H](CC(=O)O)NC(=O)[C@H](C)NC(=O)[C@H](Cc1ccc(O)cc1)NC)[C@@H](C)CC)[C@@H](C)O)C(C)C)[C@@H](C)CC)C(=O)N[C@@H](CO)C(=O)N[C@@H](CCCNC(=N)N)C(=O)NCCCC(=O)NC [Peptide P-27415, [N—Me-Tyr^1, Orn^12, Abu^15, Orn^21, Nle^27, Gab^30]hGHRH(1-30)NH—CH3] (H-[NMeY]ADAIFTNSYR[Orn]VL[Abu]QLSAR[Orn]LLQDI[Nle]SR[GABA]-NHMe)
1.30	CCCC[C@H](NC(=O)[C@@H](NC(=O)[C@H](CC(=O)O)NC(=O)[C@H](CCC(N)=O)NC(=O)[C@H](CC(C)C)NC(=O)[C@H](CC(C)C)NC(=O)[C@H](CCCN)NC(=O)[C@H](CCCNC(=N)N)NC(=O)[C@H](C)NC(=O)[C@H](CO)NC(=O)[C@H](CC(C)C)NC(=O)[C@H](CCC(N)=O)NC(=O)[C@H](CC)NC(=O)[C@H](CC(C)C)NC(=O)[C@@H](NC(=O)[C@H](CCCN)NC(=O)[C@H](CCCNC(=N)N)NC(=O)[C@H](Cc1ccc(O)cc1)NC(=O)[C@H](CO)NC(=O)[C@H](CC(N)=O)NC(=O)[C@@H](NC(=O)[C@H](Cc1ccccc1)NC(=O)[C@@H](NC(=O)[C@H](C)NC(=O)[C@H](CC(=O)O)NC(=O)[C@@H](C)NC(=O)CCc1ccc(O)cc1)[C@@H](C)CC)[C@@H](C)O)C(C)C)[C@@H](C)CC)C(=O)N[C@@H](CC(=O)O)C(=O)N[C@@H](CCCNC(=N)N)C(=O)NC [Peptide P-27400, [Dat^1, D-Ala^2, Orn^12, Abu^15, Orn^21, Nle^27, Asp^28]hGHRH(1-29)NH—CH3] (Desaminotyrosyl-[dA]DAIFTNSYR[Orn]VL[Abu]QLSAR[Orn]LLQDI[Nle]DR-NHMe)
1.78	CCCC[C@H](NC(=O)[C@@H](NC(=O)[C@H](CC(=O)O)NC(=O)[C@H](CCC(N)=O)NC(=O)[C@H](CC(C)C)NC(=O)[C@H](CC(C)C)NC(=O)[C@H](CCCN)NC(=O)[C@H](Cc1c[nH]cn1)NC(=O)[C@H](C)NC(=O)[C@H](CO)NC(=O)[C@H](CC(C)C)NC(=O)[C@H](CCC(N)=O)NC(=O)[C@H](CC)NC(=O)[C@H](CC(C)C)NC(=O)[C@@H](NC(=O)[C@H](CCCN)NC(=O)[C@H](Cc1c[nH]cn1)NC(=O)[C@H](Cc1ccc(O)cc1)NC(=O)[C@H](CO)NC(=O)[C@H](CCC(N)=O)NC(=O)[C@@H](NC(=O)[C@H](Cc1ccccc1)NC(=O)[C@@H](NC(=O)[C@H](C)NC(=O)[C@H](CC(=O)O)NC(=O)C(C)NC(=O)CCc1ccc(O)cc1)[C@@H](C)CC)[C@@H](C)O)C(C)C)[C@@H](C)CC)C(=O)N[C@@H](CC(=O)O)C(=O)N[C@@H](CCCNC(=N)N)C(=O)NC (some centres unmarked) [Peptide P-27413, [Dat^1, Gln^8, His^11, Orn^12, Abu^15, His^20, Orn^21, Nle^27, Asp^28]hGHRH(1-29)NH—CH3] (Desaminotyrosyl-[ξA]DAIFTQSYH[Orn]VL[Abu]QLSAH[Orn]LLQDI[Nle]DR-NHMe)
7.91	CCCC[C@H](NC(=O)[C@@H](NC(=O)[C@H](CC(=O)O)NC(=O)[C@H](CCC(N)=O)NC(=O)[C@H](CC(C)C)NC(=O)[C@H](CC(C)C)NC(=O)[C@H](CCCN)NC(=O)[C@H](CCCNC(=N)N)NC(=O)[C@H](C)NC(=O)[C@H](CO)NC(=O)[C@H](CC(C)C)NC(=O)[C@H](CCC(N)=O)NC(=O)[C@H](CC)NC(=O)[C@H](CC(C)C)NC(=O)[C@@H](NC(=O)[C@H](CCCN)NC(=O)[C@H](CCCNC(=N)N)NC(=O)[C@H](Cc1ccc(O)cc1)NC(=O)[C@H](CO)NC(=O)[C@H](CCC(N)=O)NC(=O)[C@@H](NC(=O)[C@H](Cc1ccccc1)NC(=O)[C@@H](NC(=O)[C@H](C)NC(=O)[C@H](CC(=O)O)NC(=O)[C@@H](C)NC(=O)CCc1ccc(O)cc1)[C@@H](C)CC)[C@@H](C)O)C(C)C)[C@@H](C)CC)C(=O)N[C@@H](CC(=O)O)C(=O)N[C@@H](CCCNC(=N)N)C(=O)NC [Peptide P-27408, [Dat^1, D-Ala^2, Gln^8, Orn^12, Abu^15, Orn^21, Nle^27, Asp^28]hGHRH(1-30)NH—CH3] (Desaminotyrosyl-[dA]DAIFTQSYR[Orn]VL[Abu]QLSAR[Orn]LLQDI[Nle]DR-NHMe)
3.02	CCCC[C@H](NC(=O)[C@@H](NC(=O)[C@H](CC(=O)O)NC(=O)[C@H](CCC(N)=O)NC(=O)[C@H](CC(C)C)NC(=O)[C@H](CC(C)C)NC(=O)[C@H](CCCN)NC(=O)[C@H](CCCNC(=N)N)NC(=O)[C@H](C)NC(=O)[C@H](CO)NC(=O)[C@H](CC(C)C)NC(=O)[C@H](CCC(N)=O)NC(=O)[C@H](CC)NC(=O)[C@H](CC(C)C)NC(=O)[C@@H](NC(=O)[C@H](CCCN)NC(=O)[C@H](CCCNC(=N)N)NC(=O)[C@H](Cc1ccc(O)cc1)NC(=O)[C@H](CO)NC(=O)[C@H](CC(N)=O)NC(=O)[C@@H](NC(=O)[C@H](Cc1ccccc1)NC(=O)[C@@H](NC(=O)[C@H](C)NC(=O)[C@H](CC(=O)O)NC(=O)[C@@H](CC)NC(=O)CCc1ccc(O)cc1)[C@@H](C)CC)[C@@H](C)O)C(C)C)[C@@H](C)CC)C(=O)N[C@@H](CO)C(=O)N[C@@H](CCCNC(=N)N)C(=O)NCCCC(N)=O [Peptide P-25504, [Dat^1, D-Abu^2, Orn^12, Abu^15, Orn^21, Nle^27, Gab^30]hGHRH(1-30)NH2] (Desaminotyrosyl-[dAbu]DAIFTNSYR[Orn]VL[Abu]QLSAR[Orn]LLQDI[Nle]SR[GABA]-NH2)

The next lines start with the compound.

Structure (SMILES)	Relative affinitiy (Binding potency) vs JI-38
CCCC[C@H](NC(=O)[C@@H](NC(=O)[C@H](CC(=O)O)NC(=O)[C@H](CCC(N)=O)NC(=O)[C@H](CC(C)C)NC(=O)[C@H](CC(C)C)NC(=O)[C@H](CCCN)NC(=O)[C@H](CCCNC(=N)N)NC(=O)[C@H](C)NC(=O)[C@H](CO)NC(=O)[C@H](CC(C)C)NC(=O)[C@H](CCC(N)=O)NC(=O)[C@H](CC)NC(=O)[C@H](CC(C)C)NC(=O)[C@@H](NC(=O)[C@H](CCCN)NC(=O)[C@H](CCCNC(=N)N)NC(=O)[C@H](Cc1ccc(O)cc1)NC(=O)[C@H](CO)NC(=O)[C@H](CC(N)=O)NC(=O)[C@@H](NC(=O)[C@H](Cc1ccccc1)NC(=O)[C@@H](NC(=O)[C@H](C)NC(=O)[C@H](CC(=O)O)NC(=O)[C@H](CC)NC(=O)[C@H](Cc1ccc(O)cc1)NC)[C@@H](C)CC)[C@@H](C)O)C(C)C)[C@@H](C)CC)C(=O)N[C@@H](CO)C(=O)N[C@@H](CCCNC(=N)N)C(=O)NCCCC(N)=O [Peptide P-25503, [N—Me-Tyr^1, Abu^2, Orn^12, Abu^15, Orn^21, Nle^27, Gab^30]hGHRH(1-30)NH2] (H-[NMeY][Abu]DAIFTNSYR[Orn]VL[Abu]QLSAR[Orn]LLQDI[Nle]SR[GABA]-NH2)	3.67
CCCC[C@H](NC(=O)[C@@H](NC(=O)[C@H](CC(=O)O)NC(=O)[C@H](CCC(N)=O)NC(=O)[C@H](CC(C)C)NC(=O)[C@H](CC(C)C)NC(=O)[C@H](CCCN)NC(=O)[C@H](CCCNC(=N)N)NC(=O)[C@H](C)NC(=O)[C@H](CO)NC(=O)[C@H](CC(C)C)NC(=O)[C@H](CCC(N)=O)NC(=O)[C@H](CC)NC(=O)[C@H](CC(C)C)NC(=O)[C@@H](NC(=O)[C@H](CCCN)NC(=O)[C@H](CCCNC(=N)N)NC(=O)[C@H](Cc1ccc(O)cc1)NC(=O)[C@H](CO)NC(=O)[C@H](CC(N)=O)NC(=O)[C@@H](NC(=O)[C@H](Cc1ccccc1)NC(=O)[C@@H](NC(=O)[C@H](C)NC(=O)[C@H](CC(=O)O)NC(=O)[C@@H](C)NC(=O)[C@H](Cc1ccc(O)cc1)NC)[C@@H](C)CC)[C@@H](C)O)C(C)C)[C@@H](C)CC)C(=O)N[C@@H](CC(=O)O)C(=O)N[C@@H](CCCNC(=N)N)C(=O)NCCCCCCCC(N)=O [Peptide P-21303, [N—Me-Tyr^1, D-Ala^2, Orn^12, Abu^15, Orn^21, Nle^27, Asp^28, Amc^30]hGHRH(1-30)NH2] (H-[NMeY][dA]DAIFTNSYR[Orn]VL[Abu]QLSAR[Orn]LLQDI[Nle]DR[Aoc]-NH2)	2.32
CCCC[C@H](NC(=O)[C@@H](NC(=O)[C@H](CC(=O)O)NC(=O)[C@H](CCC(N)=O)NC(=O)[C@H](CC(C)C)NC(=O)[C@H](CC(C)C)NC(=O)[C@H](CCCN)NC(=O)[C@H](CCCNC(=N)N)NC(=O)[C@H](C)NC(=O)[C@H](CO)NC(=O)[C@H](CC(C)C)NC(=O)[C@H](CCC(N)=O)NC(=O)[C@H](CC)NC(=O)[C@H](CC(C)C)NC(=O)[C@@H](NC(=O)[C@H](CCCN)NC(=O)[C@H](CCCNC(=N)N)NC(=O)[C@H](Cc1ccc(O)cc1)NC(=O)[C@H](CO)NC(=O)[C@H](CC(N)=O)NC(=O)[C@@H](NC(=O)[C@H](Cc1c(F)c(F)c(F)c(F)c1F)NC(=O)[C@@H](NC(=O)[C@H](C)NC(=O)[C@H](CC(=O)O)NC(=O)[C@@H](C)NC(=O)[C@H](Cc1ccc(O)cc1)NC)[C@@H](C)CC)[C@@H](C)O)C(C)C)[C@@H](C)CC)C(=O)N[C@@H](CC(=O)O)C(=O)NCCCCNC(=N)N [Peptide P-20359, [N—Me-Tyr^1, D-Ala^2, Fpa5^6, Orn^12, Abu^15, Orn^21, Nle^27, Asp^28, Agm^29]hGHRH(1-29)] (H-[NMeY][dA]DAI[Phe(F5)]TNSYR[Orn]VL[Abu]QLSAR[Orn]LLQDI[Nle]D-Agmatine)	1.43
